Assay results reported in ChEMBL document CHEMBL1201862, “PubChem BioAssay data set” (2004).
Where “and” joins values, the source holds several entries; their conditions need not be identical. Identical values can stand only once. Calls of active or inactive are those of the source.

Experiments:
[1] = molecular target: Type-1 angiotensin II receptor (Homo sapiens, UniProt P30556); test: AT1 receptor agonists, dose response, selectivity assay for APJ receptor agonist project, cell-based, uHTS hits (AID 488865); assay type: functional;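 further: beta-arrestin recruitment to AT1 measured by enzyme fragment complementation luminescence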
[2] = molecular target: Nucleotide-binding oligomerization domain-containing protein 2 (Homo sapiens, UniProt Q9HC29); test: NOD2 signaling inhibitors, cell-based, luminescence, uHTS, HEK293 (AID 1566); assay type: functional
Tumor necrosis factor = Tumor necrosis factor (Homo sapiens, UniProt P01375); test: TNFa-triggered NF-kB activation inhibitors, SAR follow-up, cell-based, revised (AID 2337); assay type: functional
[3] = molecular target: Nucleotide-binding oligomerization domain-containing protein 1 (Homo sapiens, UniProt Q9Y239); test: NOD1 signaling inhibitors, SAR follow-up, revised (AID 2333); assay type: functional
[4] = molecular target: T1, Mannose-6-phosphate isomerase (Homo sapiens, UniProt P34949); test: Confirmation of compounds inhibiting phosphomannose isomerase (PMI) via a fluorescence intensity assay using a high concentration of mannose 6-phosphate. [Related pubchem assays (depositor defined):AID1209, AID1220, AID1545, AID1553, AID1620]
T1 sequence (P34949 whole entry): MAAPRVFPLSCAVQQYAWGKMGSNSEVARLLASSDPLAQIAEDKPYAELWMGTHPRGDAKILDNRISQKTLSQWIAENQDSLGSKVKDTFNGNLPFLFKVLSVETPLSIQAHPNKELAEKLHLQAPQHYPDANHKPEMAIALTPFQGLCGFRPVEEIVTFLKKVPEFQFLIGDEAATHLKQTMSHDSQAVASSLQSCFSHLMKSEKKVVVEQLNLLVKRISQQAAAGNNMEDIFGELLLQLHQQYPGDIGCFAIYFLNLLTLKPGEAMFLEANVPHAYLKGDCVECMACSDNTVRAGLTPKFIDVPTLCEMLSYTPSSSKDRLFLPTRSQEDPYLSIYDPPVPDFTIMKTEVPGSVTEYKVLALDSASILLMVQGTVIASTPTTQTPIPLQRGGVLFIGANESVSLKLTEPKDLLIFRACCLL

Large T antigen = Large T antigen (Simian virus 40, UniProt P03070); assay type: functional, Betapolyomavirus macacae;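 further: Confirmatory-stage PubChem screen for compounds that inhibit SV40 T antigen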
[5] = molecular target: T1, Mannose-6-phosphate isomerase; test: inhibitors of human PMI, primary screen, biochemical, fluorescence intensity, coupled assay (AID 1209)
[6] = molecular target: T1, Mannose-6-phosphate isomerase; test: human PMI inhibitors, high substrate, primary screen, biochemical, fluorescence intensity, high mannose 6-phosphate (AID 1220)
[7] = molecular target: T1, Mannose-6-phosphate isomerase; test: PMI enzyme inhibitors, confirmation, biochemical, fluorescence intensity (AID 1535)
Hexokinase = molecular target: T2, Hexokinase (Trypanosoma brucei, UniProt Q38C41); test: Confirmation assay for inhibitors of Trypanosoma brucei hexokinase 1-Analogue-first series. [Related pubchem assays (depositor defined):AID1430, AID1632, AID2516, AID2560, AID2579, AID2600, AID449725, AID492951]; assay type: functional
T2 sequence (Q38C41 whole entry): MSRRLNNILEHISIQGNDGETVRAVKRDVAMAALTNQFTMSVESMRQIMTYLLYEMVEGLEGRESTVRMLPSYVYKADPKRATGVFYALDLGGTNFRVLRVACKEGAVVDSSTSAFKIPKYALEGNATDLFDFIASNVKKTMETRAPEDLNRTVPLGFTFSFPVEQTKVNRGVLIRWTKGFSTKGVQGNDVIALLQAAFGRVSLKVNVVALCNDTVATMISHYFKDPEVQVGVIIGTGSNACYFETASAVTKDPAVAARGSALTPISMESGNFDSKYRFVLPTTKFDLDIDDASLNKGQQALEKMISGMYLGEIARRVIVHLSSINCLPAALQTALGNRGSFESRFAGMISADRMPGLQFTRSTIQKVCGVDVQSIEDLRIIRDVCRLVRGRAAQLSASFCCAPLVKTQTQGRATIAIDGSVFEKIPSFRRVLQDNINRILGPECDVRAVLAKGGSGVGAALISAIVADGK

[8] = molecular target: Glucose-6-phosphate 1-dehydrogenase (Homo sapiens, UniProt P11413); test: human G6PD enzyme inhibitors, dose response, selectivity assay for P. falciparum G6PD inhibitor project, biochemical, fluorescence (AID 504792); assay type: functional
Phosphomannomutase 2 = Phosphomannomutase 2 (Homo sapiens, UniProt O15305); test: Counter screen SAR assay for PMM2 inhibitors via a fluorescence intensity assay. [Related pubchem assays (depositor defined):AID1545, AID1574]
[9] = molecular target: Phosphoethanolamine/phosphocholine phosphatase (Homo sapiens, UniProt Q8TCT1); test: SAR assay for compounds that inhibit PHOSPHO1. [Related pubchem assays (depositor defined):AID1545, AID1565, AID1574]
[10] = molecular target: Eukaryotic translation initiation factor 4E (Mus musculus, UniProt P63073); test: eIF4E–eIF4G protein interaction inhibitors, dose response, biochemical, TR-FRET (AID 855); assay type: functional;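 further: potency for disrupting eIF4E binding to eIF4GI seen as loss of FRET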
[11] = molecular target: DNA dC->dU-editing enzyme APOBEC-3G (Homo sapiens, UniProt Q9HC16); test: Dose Response confirmation of small molecule APOBEC3G DNA Deaminase Inhibitors via a fluorescence-based single-stranded DNA deaminase assay. [Related pubchem assays (depositor defined):AID493012, AID493028]; assay type: functional
[12] = molecular target: T3, Mitochondrial peptide methionine sulfoxide reductase (Bos taurus, UniProt P54149); test: Absorbance-based biochemical high throughput dose response assay for activators of Methionine sulfoxide reductase A (MsrA).; assay type: functional
T3 sequence (P54149 whole entry): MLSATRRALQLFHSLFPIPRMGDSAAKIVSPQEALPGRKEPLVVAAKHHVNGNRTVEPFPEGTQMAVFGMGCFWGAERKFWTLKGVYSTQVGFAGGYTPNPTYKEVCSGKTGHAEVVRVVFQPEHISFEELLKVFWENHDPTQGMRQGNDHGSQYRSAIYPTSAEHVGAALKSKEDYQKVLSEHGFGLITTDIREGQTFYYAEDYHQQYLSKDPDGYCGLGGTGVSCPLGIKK

[13] = molecular target: Voltage-dependent T-type calcium channel subunit alpha-1H (Homo sapiens, UniProt O95180); test: Cav3.2 T-type channel inhibitors, cell-based, synthetic library set 1, calcium flux (AID 493022); assay type: functional
Saccharomyces cerevisiae = test: NALP1 inhibitor project selectivity study, Caspase-1/ASC signal blockade IC50 in S. cerevisiae (AID 488863); assay type: functional, organism-based
[14] = molecular target: NACHT, LRR and PYD domains-containing protein 1 (Homo sapiens, UniProt Q9C000); test: NALP1 inhibitors in yeast, dose response, luminescent (AID 488860); assay type: functional
[15] = molecular target: T4, Oxysterols receptor LXR-beta (Homo sapiens, UniProt P55055); assay type: functional, cell-based;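 further: Cell-based luminescence dose-response assay of agonist activity at LXR, run as a confirmatory counterscreen to a daf-12 agonist screen; HEK293 cells with Gal4-LXR fusion and GAL4-driven luciferase reporter; agonist potency from rising luciferase signal of a Gal4-LXR reporter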
T4 sequence (P55055 whole entry): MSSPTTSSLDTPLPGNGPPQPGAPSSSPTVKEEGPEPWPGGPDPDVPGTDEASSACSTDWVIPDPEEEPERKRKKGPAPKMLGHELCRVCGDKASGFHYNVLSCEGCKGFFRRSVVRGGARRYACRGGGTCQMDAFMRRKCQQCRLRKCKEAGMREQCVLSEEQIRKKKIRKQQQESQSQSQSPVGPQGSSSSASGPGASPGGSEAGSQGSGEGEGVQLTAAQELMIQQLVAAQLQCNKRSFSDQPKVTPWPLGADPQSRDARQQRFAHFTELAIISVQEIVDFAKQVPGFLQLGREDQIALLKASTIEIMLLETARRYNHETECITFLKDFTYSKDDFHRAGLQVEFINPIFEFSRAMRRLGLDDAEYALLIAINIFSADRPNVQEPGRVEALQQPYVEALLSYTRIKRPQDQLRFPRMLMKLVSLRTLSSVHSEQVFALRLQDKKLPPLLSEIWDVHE

[16] = insulin promoter down-regulators in MIN6 cells, imaging, high-content screening, mouse beta cells (AID 1628); assay type: functional
[17] = cytotoxicity in MIN6 insulinoma cells, dose response, cytotoxicity control, cell-based, mouse insulinoma (AID 2122); assay type: functional;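 further: confirmatory high-throughput counterscreen run to flag cytotoxic compounds; mouse MIN-6 beta cells carrying an insulin promoter eGFP reporter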
[18] = inhibitors of intracellular T. cruzi replication, confirmation, NIH3T3 host cells, beta-gal luminescence (AID 2044); assay type: functional, cell-based;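 further: intracellular parasites grown in NIH/3T3 mouse fibroblasts as host cells; luminescent beta-galactosidase reporter signal from transgenic T. cruzi replicating inside host cells; inhibitors lower the luminescence signal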
[19] = cytotoxicity toward NIH3T3 fibroblasts, dose response, counter-screen, cell-based, ATP luminescence, mouse fibroblasts (AID 2010); assay type: functional;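 further: cells exposed to compound for about 90 hours before reading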
[20] = inhibitors of Ran–importin-beta complex, dose response, biochemical, plate reader, dry powder (AID 493048); parameters: species or system Homo sapiens
Importin subunit alpha-1 = Importin subunit alpha-1 (Homo sapiens, UniProt P52292); test: YIC FRET probe signal interference, dose response, counter-screen for RanGTP-importin-beta inhibitor project, biochemical, dry powder samples (AID 493094); assay type: functional
[21] = molecular target: T5, Runt-related transcription factor 1/Core-binding factor subunit beta (Homo sapiens, UniProt Q01196+Q13951); test: inhibitors of RUNX1 Runt–CBFb-SMMHC binding, primary screen, biochemical, FRET, Cerulean-Runt, Venus-CBFb-SMMHC, uHTS (AID 1434); assay type: protein assay;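 further: partner is the CBFb-SMMHC leukemia fusion protein rather than wild-type CBFb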
[22] = molecular target: T5, Runt-related transcription factor 1/Core-binding factor subunit beta; test: inhibitors of RUNX1 Runt–CBFb-SMMHC binding, biochemical, TR-FRET (AID 1438); assay type: protein assay
[23] = molecular target: T6, Tyrosine-protein phosphatase non-receptor type 7 (Homo sapiens, UniProt P35236); test: redox-dependent HePTP inhibition, mechanism study, biochemical, fluorescence (AID 2068); assay type: functional
T6 sequence (P35236 whole entry): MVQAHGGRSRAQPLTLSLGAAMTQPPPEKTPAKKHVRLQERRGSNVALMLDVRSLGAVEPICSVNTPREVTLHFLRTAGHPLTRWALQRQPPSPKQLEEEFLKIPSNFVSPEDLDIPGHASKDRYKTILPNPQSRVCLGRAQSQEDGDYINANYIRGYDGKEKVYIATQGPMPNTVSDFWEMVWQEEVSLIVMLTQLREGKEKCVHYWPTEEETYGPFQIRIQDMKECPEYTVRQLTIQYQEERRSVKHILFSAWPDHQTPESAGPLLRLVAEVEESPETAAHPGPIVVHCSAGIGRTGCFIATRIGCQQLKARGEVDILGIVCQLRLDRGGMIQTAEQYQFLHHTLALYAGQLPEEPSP

HEK293 [24] = test: NOD1 signaling inhibitors, primary screen, cell-based, luminescence, uHTS (AID 1578); assay type: functional; conditions: Homo sapiens
HEK293 [25] = test: cells; assay type: functional, cell-based; conditions: Homo sapiens
[26] = molecular target: T7, Voltage-gated N-type calcium channel alpha-1B subunit/Amyloid beta A4 precursor protein-binding family A member 1 (Homo sapiens, UniProt Q00975+Q02410); assay type: protein assay
HEK293 [27] = test: cells; assay type: functional, cell-based; conditions: Homo sapiens; remark: listed apart in the source
HEK293 [28] = test: NOD2 signaling inhibitors in MDP-stimulated cells, cell-based, uHTS, luminescence (AID 2001); assay type: functional; conditions: Homo sapiens
[29] = molecular target: T7, Voltage-gated N-type calcium channel alpha-1B subunit/Amyloid beta A4 precursor protein-binding family A member 1; assay type: protein assay; remark: listed apart in the source
[30] = molecular target: T8, Carboxy-terminal domain RNA polymerase II polypeptide A small phosphatase 1 (Homo sapiens, UniProt Q9GZU7); test: inhibitors of CTDSP1, concentration-response testing, biochemical assay, absorbance-based, actives from ultra-high-throughput screening (AID 540297); assay type: functional
T8 sequence (Q9GZU7 whole entry): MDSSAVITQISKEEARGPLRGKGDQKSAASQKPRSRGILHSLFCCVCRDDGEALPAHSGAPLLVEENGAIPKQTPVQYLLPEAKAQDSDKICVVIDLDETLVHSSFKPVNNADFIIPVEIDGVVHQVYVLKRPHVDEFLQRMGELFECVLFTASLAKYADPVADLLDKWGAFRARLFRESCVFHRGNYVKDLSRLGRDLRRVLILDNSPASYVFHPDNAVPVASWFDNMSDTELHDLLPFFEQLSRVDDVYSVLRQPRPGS

T7 sequence (Q00975 whole entry): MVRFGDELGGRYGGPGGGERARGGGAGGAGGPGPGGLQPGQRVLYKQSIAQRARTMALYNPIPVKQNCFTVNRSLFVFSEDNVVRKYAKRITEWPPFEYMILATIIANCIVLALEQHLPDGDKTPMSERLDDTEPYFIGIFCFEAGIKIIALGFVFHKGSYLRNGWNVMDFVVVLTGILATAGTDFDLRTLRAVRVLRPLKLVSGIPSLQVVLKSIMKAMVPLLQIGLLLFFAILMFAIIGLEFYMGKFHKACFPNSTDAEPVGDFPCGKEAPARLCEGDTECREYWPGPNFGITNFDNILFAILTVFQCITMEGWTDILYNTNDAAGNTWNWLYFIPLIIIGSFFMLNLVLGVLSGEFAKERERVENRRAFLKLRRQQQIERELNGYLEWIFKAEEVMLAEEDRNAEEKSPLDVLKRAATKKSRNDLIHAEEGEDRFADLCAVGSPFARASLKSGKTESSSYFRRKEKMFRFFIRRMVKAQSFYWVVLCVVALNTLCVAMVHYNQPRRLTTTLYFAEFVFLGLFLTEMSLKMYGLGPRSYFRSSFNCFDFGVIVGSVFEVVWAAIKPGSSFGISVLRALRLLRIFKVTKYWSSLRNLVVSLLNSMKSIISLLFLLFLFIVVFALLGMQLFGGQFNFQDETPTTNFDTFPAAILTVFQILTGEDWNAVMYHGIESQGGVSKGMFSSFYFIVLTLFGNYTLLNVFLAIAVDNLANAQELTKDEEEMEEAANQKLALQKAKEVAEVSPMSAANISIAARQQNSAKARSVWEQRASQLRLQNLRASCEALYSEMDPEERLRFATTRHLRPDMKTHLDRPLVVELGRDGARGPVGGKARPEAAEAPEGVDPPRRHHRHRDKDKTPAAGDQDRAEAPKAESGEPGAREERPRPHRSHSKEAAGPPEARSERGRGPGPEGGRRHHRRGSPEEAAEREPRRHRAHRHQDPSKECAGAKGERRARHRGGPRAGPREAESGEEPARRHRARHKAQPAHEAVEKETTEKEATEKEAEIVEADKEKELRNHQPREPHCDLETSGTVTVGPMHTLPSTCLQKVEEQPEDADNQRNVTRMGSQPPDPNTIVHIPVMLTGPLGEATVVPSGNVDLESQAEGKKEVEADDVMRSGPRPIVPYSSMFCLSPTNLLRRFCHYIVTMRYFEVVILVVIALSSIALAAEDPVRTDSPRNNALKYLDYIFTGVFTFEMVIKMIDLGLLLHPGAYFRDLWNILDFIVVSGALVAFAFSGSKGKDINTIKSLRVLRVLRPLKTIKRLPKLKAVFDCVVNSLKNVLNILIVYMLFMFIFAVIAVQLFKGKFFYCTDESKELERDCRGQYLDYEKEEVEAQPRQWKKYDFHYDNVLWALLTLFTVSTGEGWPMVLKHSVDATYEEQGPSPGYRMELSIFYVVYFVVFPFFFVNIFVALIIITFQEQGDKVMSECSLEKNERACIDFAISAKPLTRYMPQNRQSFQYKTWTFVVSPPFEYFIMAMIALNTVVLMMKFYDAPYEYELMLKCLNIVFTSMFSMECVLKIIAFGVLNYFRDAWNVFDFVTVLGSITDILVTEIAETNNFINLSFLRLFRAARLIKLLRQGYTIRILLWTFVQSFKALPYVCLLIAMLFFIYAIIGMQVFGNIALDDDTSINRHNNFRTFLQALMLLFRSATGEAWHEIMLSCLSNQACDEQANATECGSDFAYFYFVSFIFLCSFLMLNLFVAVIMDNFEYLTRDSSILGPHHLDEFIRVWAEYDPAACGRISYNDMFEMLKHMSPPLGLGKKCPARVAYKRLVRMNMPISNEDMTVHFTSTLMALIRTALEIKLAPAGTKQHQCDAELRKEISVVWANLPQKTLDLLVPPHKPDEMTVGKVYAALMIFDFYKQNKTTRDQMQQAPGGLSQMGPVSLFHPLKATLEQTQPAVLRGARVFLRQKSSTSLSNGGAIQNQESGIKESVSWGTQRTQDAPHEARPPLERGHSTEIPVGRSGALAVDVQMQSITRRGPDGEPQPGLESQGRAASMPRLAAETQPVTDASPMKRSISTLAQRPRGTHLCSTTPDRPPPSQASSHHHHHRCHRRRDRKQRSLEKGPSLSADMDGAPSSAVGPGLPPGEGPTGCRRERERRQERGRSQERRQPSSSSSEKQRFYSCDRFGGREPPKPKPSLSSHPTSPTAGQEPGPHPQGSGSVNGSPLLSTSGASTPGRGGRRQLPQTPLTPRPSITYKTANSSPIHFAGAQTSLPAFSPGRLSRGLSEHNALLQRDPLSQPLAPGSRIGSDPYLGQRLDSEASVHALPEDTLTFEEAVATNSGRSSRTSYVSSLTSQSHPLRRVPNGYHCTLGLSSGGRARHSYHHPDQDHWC
T7 sequence (Q02410 whole entry): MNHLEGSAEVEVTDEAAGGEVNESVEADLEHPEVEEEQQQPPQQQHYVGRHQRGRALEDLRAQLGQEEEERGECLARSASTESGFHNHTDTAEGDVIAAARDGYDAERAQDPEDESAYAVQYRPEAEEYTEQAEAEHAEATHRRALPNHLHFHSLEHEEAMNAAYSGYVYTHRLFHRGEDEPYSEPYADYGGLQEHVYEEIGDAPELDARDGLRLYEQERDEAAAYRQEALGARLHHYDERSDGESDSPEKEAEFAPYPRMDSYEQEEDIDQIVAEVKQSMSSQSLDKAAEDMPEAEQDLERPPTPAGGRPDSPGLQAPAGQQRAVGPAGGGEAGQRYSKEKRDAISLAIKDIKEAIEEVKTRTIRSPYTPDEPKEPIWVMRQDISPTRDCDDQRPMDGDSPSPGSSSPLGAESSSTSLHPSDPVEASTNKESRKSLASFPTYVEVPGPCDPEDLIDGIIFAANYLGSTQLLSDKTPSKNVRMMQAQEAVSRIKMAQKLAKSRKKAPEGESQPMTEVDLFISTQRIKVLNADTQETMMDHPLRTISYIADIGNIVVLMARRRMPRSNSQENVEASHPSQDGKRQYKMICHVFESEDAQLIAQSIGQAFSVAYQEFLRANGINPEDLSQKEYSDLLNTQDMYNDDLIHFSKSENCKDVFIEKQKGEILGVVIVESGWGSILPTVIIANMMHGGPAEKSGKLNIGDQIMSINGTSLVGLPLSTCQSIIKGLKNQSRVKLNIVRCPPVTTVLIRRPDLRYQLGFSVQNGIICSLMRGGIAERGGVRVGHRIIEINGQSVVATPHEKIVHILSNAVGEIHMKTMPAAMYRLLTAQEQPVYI
Sequence of Phosphoethanolamine/phosphocholine phosphatase (Q8TCT1 whole entry): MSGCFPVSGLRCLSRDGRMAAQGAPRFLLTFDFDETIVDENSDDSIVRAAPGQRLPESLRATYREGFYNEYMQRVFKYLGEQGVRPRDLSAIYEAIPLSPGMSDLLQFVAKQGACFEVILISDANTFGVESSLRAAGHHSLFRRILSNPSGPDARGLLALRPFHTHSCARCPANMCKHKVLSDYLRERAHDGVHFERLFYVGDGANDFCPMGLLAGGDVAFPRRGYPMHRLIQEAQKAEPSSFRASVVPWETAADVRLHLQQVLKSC
Sequence of Phosphomannomutase 2 (O15305 whole entry): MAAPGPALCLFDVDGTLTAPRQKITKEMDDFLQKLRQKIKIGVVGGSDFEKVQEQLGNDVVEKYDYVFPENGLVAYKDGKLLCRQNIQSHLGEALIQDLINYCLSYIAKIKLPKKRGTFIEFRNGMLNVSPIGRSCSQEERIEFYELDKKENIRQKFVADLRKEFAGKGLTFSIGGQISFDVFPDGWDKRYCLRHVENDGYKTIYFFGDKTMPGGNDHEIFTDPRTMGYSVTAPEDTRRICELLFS
T5 sequence (Q01196 whole entry, the tested form may be a part): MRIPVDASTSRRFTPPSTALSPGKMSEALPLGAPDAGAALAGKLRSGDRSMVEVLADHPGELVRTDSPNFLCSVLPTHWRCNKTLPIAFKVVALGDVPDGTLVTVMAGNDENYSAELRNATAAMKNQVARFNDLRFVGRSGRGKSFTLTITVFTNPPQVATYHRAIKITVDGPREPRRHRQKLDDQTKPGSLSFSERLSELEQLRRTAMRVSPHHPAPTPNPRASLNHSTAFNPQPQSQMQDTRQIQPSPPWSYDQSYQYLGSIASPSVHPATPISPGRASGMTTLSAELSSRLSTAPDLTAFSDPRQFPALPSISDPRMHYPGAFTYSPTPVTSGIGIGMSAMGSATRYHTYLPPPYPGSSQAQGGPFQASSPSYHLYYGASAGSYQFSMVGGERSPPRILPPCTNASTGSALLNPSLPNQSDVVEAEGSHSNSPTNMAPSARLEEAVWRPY
T5 sequence (Q13951 whole entry, the tested form may be a part): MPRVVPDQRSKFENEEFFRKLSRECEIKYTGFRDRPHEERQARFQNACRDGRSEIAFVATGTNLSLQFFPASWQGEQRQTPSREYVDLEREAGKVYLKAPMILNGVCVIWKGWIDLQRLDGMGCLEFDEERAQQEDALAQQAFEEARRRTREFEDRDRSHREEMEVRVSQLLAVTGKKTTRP
Sequence of Tumor necrosis factor (P01375 whole entry, the tested form may be a part): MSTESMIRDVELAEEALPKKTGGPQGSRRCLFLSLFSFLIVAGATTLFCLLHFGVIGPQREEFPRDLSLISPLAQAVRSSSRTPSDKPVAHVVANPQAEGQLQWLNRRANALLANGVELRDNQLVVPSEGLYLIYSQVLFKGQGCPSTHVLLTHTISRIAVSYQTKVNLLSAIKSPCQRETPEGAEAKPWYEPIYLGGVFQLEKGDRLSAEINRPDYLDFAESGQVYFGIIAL
Sequence of Type-1 angiotensin II receptor (P30556 whole entry, the tested form may be a part): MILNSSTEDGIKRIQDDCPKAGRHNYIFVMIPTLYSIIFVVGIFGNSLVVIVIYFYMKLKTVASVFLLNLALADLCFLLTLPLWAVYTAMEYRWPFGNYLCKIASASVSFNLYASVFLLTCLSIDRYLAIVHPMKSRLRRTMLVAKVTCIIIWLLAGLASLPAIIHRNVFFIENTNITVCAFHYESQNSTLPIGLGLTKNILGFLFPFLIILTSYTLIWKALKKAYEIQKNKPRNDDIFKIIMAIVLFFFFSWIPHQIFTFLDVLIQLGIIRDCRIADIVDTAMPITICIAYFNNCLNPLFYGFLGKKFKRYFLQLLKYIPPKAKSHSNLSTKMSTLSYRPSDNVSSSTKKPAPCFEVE

## NC(=NOS(=O)(=O)c1ccc2ccccc2c1)c1ccncc1
[1]
  EC50: > 100 µM (inactive)

## O=C(CSc1nc2scc(-c3ccccc3)c2c(=O)[nH]1)Nc1ccccc1
[2]
  EC50: 0.95 µM (active)
Tumor necrosis factor
  IC50: 1.96 µM (active)
[3]
  IC50: 2.83 µM (active)

## CN(C)S(=O)(=O)c1cccc(-n2sc3ccccc3c2=O)c1
[4]
  IC50: 16.4 µM (active)
Large T antigen
  IC50: 13.3 µM (active)
[5]
  IC50: 5.25 µM (active)
[6]
  IC50: 11.7 µM (active)
[7]
  IC50: 2.79 µM (active) and 7.06 µM (active)
Hexokinase
  IC50: 7.63 µM (active)
[8]
  IC50: 12.4 µM (active)
Phosphomannomutase 2
  IC50: 13.5 µM (active) and 12.9 µM (active)
[9]
  IC50: 495 nM (active) and 457 nM (active)
[10]
  IC50: 13 µM (active)
[11]
  IC50: 9.11 µM (active)
[12]
  EC50: > 104 µM (inactive)

## CC(Oc1ccccc1)C(=O)Nc1nnc(-c2ccc3ccccc3c2)o1 (configuration not stated)
[13]
  EC50: 2.7 µM (active)

## CSc1nnc(-c2cc3c(s2)-c2ccccc2CC3)o1
Saccharomyces cerevisiae
  IC50: > 100 µM (inactive)
[14]
  IC50: > 100 µM (inactive)
[15]
  EC50: > 67.5 µM (inactive)
cells
  EC50: > 67.5 µM (inactive)

## CCOCCCn1c(=N)c(C(=O)NCc2ccc3c(c2)OCO3)cc2c(=O)n3cccc(C)c3nc21
[16]
  IC50: 1.54 µM (active)
[17]
  IC50: 5.17 µM (active)
[18]
  EC50: 1.27 µM (active)
[19]
  EC50: > 60 µM (not active)
[20]
  AC50: 227 µM (active)
Importin subunit alpha-1
  AC50: 135 µM (active)

## COc1ccc(OC)c(S(=O)(=O)N(C(C)=O)c2ccc3oc(=O)sc3c2)c1
[21]
  IC50: > 100 µM (inactive)
[22]
  IC50: > 100 µM (inactive)

## O=C(Nc1ccc2nc(-c3ccco3)c(-c3ccco3)nc2c1)Nc1cccc2ccccc12
[23]
  IC50: 1.26 µM (active)

## COc1ccc2cc3c(N)nn(C(=O)c4ccc(Cl)c([N+](=O)[O-])c4)c3nc2c1
HEK293 [24]
  EC50: 3.5 µM (active)
HEK293 [25]
  IC50: 1.71 µM (active)
[26]
  IC50: 16.1 µM (active)
HEK293 [27]
  IC50: > 20 µM (inactive)
HEK293 [28]
  IC50: 2.29 µM (active)
[29]
  IC50: 28.7 µM (active)
[30]
  IC50: 1.72 µM (active)
